Assay results as given in patent publication US20040006120A1, “Use of histamine h3 receptor inverse agonists for the control of appetite and treatment of obesity” (priority 2003, published 2004).
Marks after values point to notes of the source that are not given here.

Legend:
[1] = target: T1, H3 receptor occupancy in the brain (Rattus norvegicus, UniProt Q9QYN8); assay: Ex vivo binding: H3 receptor occupancy in the brain after intraperitoneal administration; conditions: following intraperitoneal administration
T1 construct: H3 receptor occupancy in the brain following intraperitoneal administration; from tissue
T1 sequence (Q9QYN8 whole entry): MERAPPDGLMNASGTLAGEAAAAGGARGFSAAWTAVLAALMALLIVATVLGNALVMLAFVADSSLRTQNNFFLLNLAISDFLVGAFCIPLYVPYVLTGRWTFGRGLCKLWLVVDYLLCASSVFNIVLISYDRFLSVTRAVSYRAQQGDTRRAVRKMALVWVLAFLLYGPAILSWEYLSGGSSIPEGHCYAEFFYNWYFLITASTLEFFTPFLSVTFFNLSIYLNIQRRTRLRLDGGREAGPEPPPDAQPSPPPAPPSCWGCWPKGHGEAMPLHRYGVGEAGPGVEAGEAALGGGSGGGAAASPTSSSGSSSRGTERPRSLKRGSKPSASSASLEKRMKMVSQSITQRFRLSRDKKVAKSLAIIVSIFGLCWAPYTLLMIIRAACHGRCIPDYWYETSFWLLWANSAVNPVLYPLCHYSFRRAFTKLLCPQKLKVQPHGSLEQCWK
Source text: (§1) The percent reduction in food intake by rats two hours after intraperitoneal administration of each compound is shown in Table 5. […] In Table 5, * indicates a significant decrease in food intake compared to the vehicle-treated rats (t-test, p<0.05). The ex vivo binding values in Table 5 represent the drug dose required to obtain ½-maximal H3 receptor occupancy in the brain following intraperitoneal administration. The dose values shown in Table 5 represent the dosage of drug utilized during the food intake studies. In all cases, the tested dose exceeded the amount needed to obtain ½-maximal H3 receptor occupancy in the brain.

[2] = test system: food consumption by adult Sprague-Dawley rats; assay: Food intake by adult Sprague-Dawley rats; format: in vivo, rat; conditions: for Decrease in Food Intake (%): two hours following the onset of the dark cycle
Experimental: The compounds summarized in Table 3 were examined for their ability to suppress food consumption by adult Sprague-Dawley rats. Male Sprague Dawley rats were purchased from Harlan Laboratories of Indianapolis, Ind. Rats were housed one per cage and maintained on a 12 hour light/dark schedule (lights-out at 12:30 p.m.) with ad libitum access to powdered Teklad Mouse/Rat Diet 7012 (available from Harlan Laboratories of Indianapolis, Ind.) and water. Rats were acclimated to laboratory conditions and food for 1 to 2 weeks prior to initiating food intake studies. On the day of experiments, test compounds were solubilized or suspended in vehicle/carrier and administered to rats (i.p. or p.o.) 30 to 60 minutes prior to the onset of the dark cycle. Food intake was determined at 1, 2, 4, and 24 hours following the onset of the dark cycle. Alternatively, rats were fasted (water provided) for 24 hours prior to evaluating the effects of compounds on food intake. For these studies, compounds or vehicle/carrier were administered and rats were placed in standard small animal metabolism chambers with ad libitum access to powdered Teklad Mouse/Rat Diet 7012 and water. Food intake was determined at 2 and 4 hours following the onset of feeding.
Data is cumulative food intake in grams, mean ± sem. In the table, * indicates a significant decrease in food intake compared to the vehicle-treated rats (t-test, p<0.05).
as §1

Histamine H3 receptor = target: T2, Histamine H3 receptor (Rattus norvegicus, UniProt Q9QYN8); assay: Histamine H3 receptor binding in rat cerebral cortical membranes with [3H]-Nα-methylhistamine, with and without GTPγS; conditions: in words
T2 construct: The cerebral cortical tissues were harvested and frozen on dry ice; from tissue; host or cells: cerebral cortex of male Sprague-Dawley rats (membrane preparation)
T2 sequence (Q9QYN8 whole entry): as above

| Ex Vivo Binding: drug dose required to obtain ½-maximal H3 receptor occupancy in the brain [1] | SMILES | Decrease in Food Intake (%) ([2]; Dose 10, intraperitoneal) | further results |
| --- | --- | --- | --- |
| 8.0 ± 1.3 mg/kg | O=C(CCCCC1CCCCC1)N1CCC(c2c[nH]cn2)CC1 [Compound 5, 4-(N-(5-cyclohexylpentan-1-one-1-yl)piperidin-4-yl)imidazole] | 67.6 ± 9.6* % | – |
| 0.92 ± 0.01 mg/kg | C(=C/CCC1CCCCC1)/CCc1c[nH]cn1 [Compound 2, (3Z)-4-(6-cyclohexylhex-3-en-1-yl)imidazole] | – | binding to GTPγS-treated cortical membrane preparation compared with non-treated preparation (Histamine H3 receptor): relatively little difference; Decrease in Food Intake (%) ([2]; Dose 3, intraperitoneal): 5.5 ± 0.8% |
| 2.9 ± 1.3 mg/kg | O=C(N[C@@H]1C[C@H]1c1c[nH]cn1)OCc1c(Cl)cccc1Cl [Compound 7, 4-((1R,2R)-trans-2-(O-(2,6-dichlorophenylmethyl)carboxamido)cyclopropyl)imidazole] | 0.8 ± 0.0% | – |
| 0.08 ± 0.03 mg/kg | CC(C)(C)CCC#C[C@@H]1C[C@H]1c1c[nH]cn1 [Compound 6, (1R,2R)-trans-4-(2-(5,5-dimethylhex-1-ynyl)cyclopropyl)imidazole] | – | Decrease in Food Intake (%) ([2]; Dose 1, intraperitoneal): −4.6 ± 0.8% |

Second part, the compound before the results:

| SMILES | Ex Vivo Binding: drug dose required to obtain ½-maximal H3 receptor occupancy in the brain [1] | Decrease in Food Intake (%) ([2]; Dose 10, intraperitoneal) | further results |
| --- | --- | --- | --- |
| O=C(N[C@@H]1C[C@H]1c1c[nH]cn1)OCC1CCCCC1 [Compound 3, 4-((1R,2R)-trans-2-(O-(2-cyclohexylmethyl)carboxamido)cyclopropyl)imidazole] | 2.6 ± 1.3 mg/kg | 36.4 ± 3.3* % | duration of significant reduction of food consumption ([2]; single administration, 10 mg/kg i.p.): up to 24 hours |
| CC(C)(C)CCOC(=O)N[C@@H]1C[C@H]1c1c[nH]cn1 [Compound 9, 4-((1R,2R)-trans-2-(O-(3,3-dimethyl-but-1-yl)carboxamido)cyclopropyl)imidazole] | 3.7 ± 0.4 mg/kg | −25.1 ± 3.8% | – |
| Fc1ccc(C(OCCCc2c[nH]cn2)c2ccc(F)cc2)cc1 [Compound 8, 3-(1H-imidazol-4-yl)propyl-di(p-fluorophenyl)-methylether] | 5.6 ± 0.12 mg/kg | 56.6 ± 8.3* % | – |
| O=C(N[C@@H]1C[C@H]1c1c[nH]cn1)OCCC1CCCCC1 [Compound 1, 4-((1R,2R)-trans-2-(O(2-cyclohexylethyl)carboxamido)cyclopropyl)imidazole] | 31 ± 1.3 mg/kg | 32.6 ± 4.3* % | – |
| N[C@H](/C=C\CCc1c[nH]cn1)CC1CCCCC1 [Compound 4, 4-(((5S)(3Z)-5-amino-6-cyclohexyl)hex-3-en-1-yl)imidazole] | ˜15 mg/kg | – | Decrease in Food Intake (%) ([2]; Dose 20, intraperitoneal): 53.9 ± 11.1* % |
